Like-named read-outs stand apart in the source and are kept apart here. No end group written: not given here.

Common to all, as to format: cell-based
Assay [1] deals with Pectobacterium carotovorum. Conditions: Pectobacterium carotovorum; for MIC (>90% inhibition): 1-2 days at 25° C.; for LC (lethal concentration, 100% inhibition): at least 4 days of incubation. As for the experimental part:
(§1) In-vitro inhibition assays were performed in sterile flat-bottom 96-well plates (Greiner bio-one, Frickenhausen). Antimicrobial peptides were dissolved in 0.01% acetic acid containing 0.2% BSA (500 μg/ml), filter sterilized and stored at −20° C. For inhibition assays dilutions of peptides ranging from 5 to 200 μg/ml were prepared and 10 μl (antibacterial assay) or 20 (antifungal assay) of each concentration was loaded per well.
(§2) Bacteria colonies from overnight agar plate cultures were resuspended into 5 ml LB-medium or HPG-medium (OD600 nm=0.08-0.1) and diluted into LB-medium/HPG-medium (1:100). 90 μl of this suspension containing about 10^5-10^6 CFU/ml of tested bacteria were added to each well resulting in final peptide concentrations of 0, 0.5, 1, 2, 5, 10, and 20 μg/ml. […] The lowest concentration, in which there is no observable growth (>90% inhibition) is referred to as minimal inhibitory concentration (MIC). […] For each peptide concentration two identical inhibition assays were performed.

In assay [2] the test system is Pseudomonas corrugata. The following applies: Pseudomonas corrugata; for MIC (>90% inhibition): 1-2 days at 25° C.; for LC (lethal concentration, 100% inhibition): at least 4 days of incubation. As for the experimental part:
as §1, §2

For assay [3], the system named is Pseudomonas syringae pv. syringae. The following applies: Pseudomonas syringae pv. syringae; for MIC (>90% inhibition): 1-2 days at 25° C.; for LC (lethal concentration, 100% inhibition): at least 4 days of incubation. The protocol:
as §1, §2

The test system of assay [4] is Pseudomonas syringae pv. tomato. Conditions: for LC (lethal concentration, 100% inhibition): at least 4 days of incubation. The protocol:
as §1, §2

Assay [5] relates to Clavibacter michiganensis. The assay is described as follows: In-vitro inhibition assay (MIC and LC), Example 3. Conditions: for MIC (>90% inhibition): 1-2 days at 25° C.; for LC (lethal concentration, 100% inhibition): at least 4 days of incubation. As for the experimental part: as §1, §2
Assay [6] concerns Xanthomonas vesicatoria. The assay is described as follows: In-vitro inhibition assay (MIC and LC), Example 3. Conditions: for MIC (>90% inhibition): 1-2 days at 25° C.; for LC (lethal concentration, 100% inhibition): at least 4 days of incubation. As for the experimental part: as §1, §2
Setting [7] is: Pseudomonas syringae pv. tomato, 1-2 days at 25° C.
Setting [8] is: Pseudomonas syringae pv. tomato.

KRKKLLKRLI-NH2 [SP1-16]: the “MIC (>90% inhibition)” value is >10/>10 μg/ml in assay [1]; 0.5 µg/mL in assay [2]; 0.1 µg/mL in assay [3]; 1.0/1.0 μg/ml in assay [4] (setting [7]); >10/>10 μg/ml in assay [5]; 10/>10 μg/ml in assay [6]. For the same substance, the “LC (lethal concentration, 100% inhibition)” value in assay [1] is >10/>10 μg/ml; in assay [2], 1.0 µg/mL; in assay [3], 2.5 µg/mL; in assay [4] (setting [8]), 1.0/1.0 μg/ml; in assay [5] it was >10/>10 μg/ml; in assay [6], 10/>10 μg/ml.

On to RKKKIKIIKRLI-NH2 [SP1-8], for which the “MIC (>90% inhibition)” value was >10/>10 μg/ml in assay [1]; 2.5/2.5 μg/ml in assay [2]; 0.25 µg/mL in assay [3]; 10/10 μg/ml in assay [4]; 5.0 µg/mL in assay [5]; 2.5 µg/mL in assay [6]. Moreover, the “LC (lethal concentration, 100% inhibition)” value in assay [1] was >10/>10 μg/ml; in assay [2], 2.5/2.5 μg/ml; in assay [3] it was 0.5 µg/mL; in assay [4] (setting [8]), 10/10 μg/ml; in assay [5], above 10 µg/mL; in assay [6] it was 5.0 µg/mL.

For the substance RKKRLKVVKRLV-NH2 [SP1-4], the “MIC (>90% inhibition)” value was >10/>10 μg/ml in assay [1]; >10/>10 μg/ml in assay [2]; 5.0 µg/mL in assay [3]; 2.5 µg/mL in assay [4] (setting [7]); >10/>10 μg/ml in assay [5]; >10/>10 μg/ml in assay [6]. The “LC (lethal concentration, 100% inhibition)” value in assay [1] was >10/>10 μg/ml; in assay [2], >10/>10 μg/ml; in assay [3], above 10 µg/mL; in assay [4] (setting [8]), above 10 µg/mL; in assay [5] it was >10/>10 μg/ml; in assay [6], >10/>10 μg/ml.

Turning to RKKKLKVVKRLV-NH2 [SP1-6], the “MIC (>90% inhibition)” value in assay [1] was >10/>10 μg/ml; in assay [2], >10/>10 μg/ml; in assay [3] it was 5.0 µg/mL; in assay [4] (setting [7]), 1.0/1.0 μg/ml; in assay [5] it was 10/>10 μg/ml; in assay [6], >10/>10 μg/ml. Moreover, the “LC (lethal concentration, 100% inhibition)” value in assay [1] is >10/>10 μg/ml; in assay [2], >10/>10 μg/ml; in assay [3], above 10 µg/mL; in assay [4] (setting [8]) it was 1.0/1.0 μg/ml; in assay [5], 10/>10 μg/ml; in assay [6] it was >10/>10 μg/ml.

As for RKKKFKIFKRLF-NH2 [SP1-14], the “MIC (>90% inhibition)” value in assay [1] is >10/>10 μg/ml; in assay [2] it was 0.5 µg/mL; in assay [3] it was below 0.1 µg/mL; in assay [4], 1.0 to 5.0 µg/mL; in assay [5] it was 1.0 µg/mL; in assay [6] it was 1.0 µg/mL. For the same substance, the “LC (lethal concentration, 100% inhibition)” value was >10/>10 μg/ml in assay [1]; 1.0 µg/mL in assay [2]; 0.5 µg/mL in assay [3]; 2.5 µg/mL in assay [5]; 2.5 µg/mL in assay [6].

For the substance RKKRKKLLKRLI-NH2 [SP1-20], the “MIC (>90% inhibition)” value was >10/>10 μg/ml in assay [1]; 0.5/0.5 μg/ml in assay [2]; 0.25 µg/mL in assay [3]; 10/>10 μg/ml in assay [4] (setting [7]); 5.0 µg/mL in assay [5]; 10/>10 μg/ml in assay [6]. In addition, the “LC (lethal concentration, 100% inhibition)” value is >10/>10 μg/ml in assay [1]; 0.5/0.5 μg/ml in assay [2]; 10 µg/mL in assay [3]; 10/>10 μg/ml in assay [4] (setting [8]); 10 µg/mL in assay [5]; 10/>10 μg/ml in assay [6].

With RKKKLKFFKRLF-NH2 [Sp1-11], the “MIC (>90% inhibition)” value in assay [1] was >10/>10 μg/ml; in assay [2], 0.25 µg/mL; in assay [3], 1.0 µg/mL; in assay [4] (setting [7]), >10/>10 μg/ml; in assay [5] it was 2.5 µg/mL; in assay [6], 2.5 µg/mL. The “LC (lethal concentration, 100% inhibition)” value was >10/>10 μg/ml in assay [1]; 1.0 µg/mL in assay [2]; 2.5 µg/mL in assay [3]; >10/>10 μg/ml in assay [4] (setting [8]); 5.0 µg/mL in assay [5]; 10 µg/mL in assay [6].

With RKKKIKIIKKII-NH2 [SP1-9], the “MIC (>90% inhibition)” value in assay [1] is >10/>10 μg/ml; in assay [2] it was 5.0/5.0 μg/ml; in assay [3], 0.5 µg/mL; in assay [4] (setting [7]), 5.0 µg/mL; in assay [5], 2.5 µg/mL; in assay [6], 2.5/2.5 μg/ml. Moreover, the “LC (lethal concentration, 100% inhibition)” value was >10/>10 μg/ml in assay [1]; 5.0/5.0 μg/ml in assay [2]; 1.0 µg/mL in assay [3]; 10 µg/mL in assay [4] (setting [8]); 10 µg/mL in assay [5]; 2.5/2.5 μg/ml in assay [6].

For the substance RKKKLKIIKRLI-NH2 [SP1-7], the “MIC (>90% inhibition)” value in assay [1] was >10/>10 μg/ml; in assay [2] it was 0.5 µg/mL; in assay [3], 0.1 µg/mL; in assay [4], 10/10 μg/ml; in assay [5] it was 2.5/2.5 μg/ml; in assay [6], 1.0/1.0 μg/ml. Moreover, the “LC (lethal concentration, 100% inhibition)” value was >10/>10 μg/ml in assay [1]; 2.5 µg/mL in assay [2]; 0.25 µg/mL in assay [3]; 10/10 μg/ml in assay [4] (setting [8]); 2.5/2.5 μg/ml in assay [5]; 1.0/1.0 μg/ml in assay [6].

RKKRLKLLKRLL-NH2 [SP1-1]: the “LC (lethal concentration, 100% inhibition)” value in assay [1] is >10/>10 μg/ml; in assay [2] it was 0.25 µg/mL; in assay [3] it was 0.1/0.1 μg/ml; in assay [4] (setting [8]), >10/>10 μg/ml; in assay [5] it was 2.5/2.5 μg/ml; in assay [6], 0.25 µg/mL. Moreover, the “MIC (>90% inhibition)” value in assay [2] was below 0.1 µg/mL; in assay [3], 0.1/0.1 μg/ml; in assay [4], >10/>10 μg/ml; in assay [5], 2.5/2.5 μg/ml; in assay [6] it was 0.1 µg/mL.

In the case of RKKKVKLLKRLV-NH2 [SP1-3], the “MIC (>90% inhibition)” value was >10/>10 μg/ml in assay [1]; 2.5/2.5 μg/ml in assay [2]; 0.25 µg/mL in assay [3]; 5.0 µg/mL in assay [4] (setting [7]); >10/>10 μg/ml in assay [5]; >10/>10 μg/ml in assay [6]. The “LC (lethal concentration, 100% inhibition)” value was >10/>10 μg/ml in assay [1]; 2.5/2.5 μg/ml in assay [2]; 1.0 µg/mL in assay [3]; 10 µg/mL in assay [4] (setting [8]); >10/>10 μg/ml in assay [5]; >10/>10 μg/ml in assay [6].

For RKKRVKLLKRLV-NH2 [SP1-2], the “MIC (>90% inhibition)” value in assay [1] is >10/>10 μg/ml; in assay [2], 0.5 µg/mL; in assay [3] it was 2.5 µg/mL; in assay [4] (setting [7]), 5.0/5.0 μg/ml; in assay [5], 10/>10 μg/ml; in assay [6] it was 5.0 µg/mL. Besides, the “LC (lethal concentration, 100% inhibition)” value in assay [1] is >10/>10 μg/ml; in assay [2], 2.5 µg/mL; in assay [3], 5.0 µg/mL; in assay [4] (setting [8]), 5.0/5.0 μg/ml; in assay [5], 10/>10 μg/ml; in assay [6], above 10 µg/mL.

For the origin of these results see patent publication US20110294722A1, “ANTIMICROBIAL PEPTIDES” (priority 2008, published 2011).
